From US10709715B2, “Method of treating hypertension” (Cipla Limited, priority 2017, dated 2020)
Several values for one entry are separate records, joined by “and”; a condition that tells them apart may be missing. Equal entries are not always repeated. Where two headings read alike, the source gives them in different places.

Experiments:
[1] = tested on: rats with monocrotaline induced pulmonary arterial hypertension; test: Monocrotaline rat model for treatment of pulmonary arterial hypertension, dosing Day 14 till Day 28 (Example 2); type: in vivo, Male Sprague-Dawley rats; settings: for inhibition at 100 mg/kg / inhibition at 30 mg/kg: Rattus norvegicus, po; for inhibition at 100 mg/kg / % Inhibition of Fulton index : Hypertrophy (RV/LV + S) / inhibition at 30 mg/kg: positive control = 0.00; for Fulton index: Hypertrophy (RV/LV + S), Mean / Right Ventricle weight, Mean / Right Ventricular Pressure (RVP), Mean / Right Ventricular Systolic Pressure (RVSP), Mean / Right ventricle/Body weight, Mean: group mean; for Fulton index: Hypertrophy (RV/LV + S), Mean / Right Ventricle weight, Mean / Right Ventricular Pressure (RVP), Mean / Right Ventricular Systolic Pressure (RVSP), Mean / Right ventricle/Body weight, Mean / Fulton index: Hypertrophy (RV/LV + S) / Right Ventricle weight / Right Ventricular Pressure (RVP) / Right Ventricular Systolic Pressure (RVSP) / Right ventricle/Body weight: Day 28; for Fulton index: Hypertrophy (RV/LV + S) / Right Ventricle weight / Right Ventricular Pressure (RVP) / Right Ventricular Systolic Pressure (RVSP) / Right ventricle/Body weight: individual animals
Description: The studies were conducted for hemodynamic evaluation of Temozolomide in anesthetized Sprague Dawley rats treated with monocrotaline (“MCT”) to induce pulmonary arterial hypertension. Sildenafil was used as an internal control to compare the effects of temozolomide
The effects of temozolomide were evaluated in rats with monocrotaline induced pulmonary arterial hypertension using sildenafil as standard care treatment. Male Sprague-Dawley rats were orally administered vehicle, temozolomide (30 mg/kg, given once daily every day starting on Day 14 till Day 28), or sildenafil (100 mg/kg, given once daily every day starting on Day 14 till Day 28) (n=12 in each group). Rats received a single injection of monocrotaline (50 mg/kg, s.c.) on Study Day 1. On the twenty-eighth day following monocrotaline dosing, the rats were anesthetized with ketamine/xylazine for terminal monitoring of pulmonary and systemic arterial pressures along with heart rate.
Test Item: Vehicle (0.5% Methylcellulose+0.2% Tween 80 in deionized water, temozolomide (30 mg/kg given once daily starting on Day 14 till Day 28; Sildenafil (100 mg/kg, administered once daily starting on Day 14 till Day 28)
(§1) Route of Administration: Oral
Study Design: The study was planned and conducted according to design depicted below in Table 7
Pulmonary arterial hypertension was induced by injecting 50 mg/kg dose of monocrotaline (3 mL/Kg MCT in 50% DMSO in water) subcutaneously to all the randomized Male Sprague-Dawley rats of Groups VII, VIII, IX, and X (except negative control group). Negative control group (Group VI, DMSO group) received a single dose of 3 mL/kg 50% DMSO in water for injection subcutaneously. Male Sprague-Dawley rats in groups VII, VIII, IX, and X were administered 50 mg/kg of body weight of monocrotaline in DMSO subcutaneously to induce PAH on day 1. The rats of vehicle positive control group (Group VIII) received 5 ml of vehicle every morning. The rats of the temozolomide group (Group IX) were orally administered Temozolomide (30 mg/kg given once daily starting on Day 14 till Day 28) and rats of sildenafil group (Group X) were orally administered sildenafil (100 mg/kg given once daily starting on Day 14 till Day 28). On the twenty-eighth day after monocrotaline dosing, the rats were anesthetized with ketamine/xylazine for terminal monitoring of pulmonary and systemic arterial pressures along with heart rate. It is understood that from day 1 till administration of test compounds i.e till day 14, rates of all groups were suffering from PAH due to administration of MCT. Thus the study was conducted to evaluate the efficacy of Temozolomide treatment for PAH. Sildenafil was used as an internal control to compare the effects of Temozolomide.

[2] = tested on: rats with monocrotaline induced pulmonary arterial hypertension; test: Monocrotaline rat model for pulmonary arterial hypertension, dosing from Day 1 for 28 days (Example 1); type: in vivo, Male Sprague-Dawley rats; settings: for Fulton index: Hypertrophy (RV/LV + S), Mean / RV/Body wt, Mean / Right Ventricular Pressure (RVP), Mean / Right Ventricular Systolic Pressure (RVSP), Mean / Right ventricle (RV), Mean: group mean; for Fulton index: Hypertrophy (RV/LV + S), Mean / RV/Body wt, Mean / Right Ventricular Pressure (RVP), Mean / Right Ventricular Systolic Pressure (RVSP), Mean / Right ventricle (RV), Mean / Fulton index: Hypertrophy (RV/LV + S) / RV/Body wt / Right Ventricular Pressure (RVP) / Right ventricle (RV) / Right Ventricular Systolic Pressure (RVSP): Day 28; for Fulton index: Hypertrophy (RV/LV + S) / RV/Body wt / Right Ventricular Pressure (RVP) / Right ventricle (RV) / Right Ventricular Systolic Pressure (RVSP): individual animals; for Right Ventricular Systolic Pressure (RVSP): MCT 50 mg/kg s.c.
Description: The studies were conducted for hemodynamic evaluation of temozolomide in anesthetized sprague dawley rats treated with monocrotaline (“MCT”) to induce pulmonary arterial hypertension. Sildenafil was used as an internal control to compare the effects of temozolomide.
The effects of temozolomide were evaluated in rats with monocrotaline induced pulmonary arterial hypertension using sildenafil as standard care treatment. Male Sprague-Dawley rats were orally administered vehicle, temozolomide (10 mg/kg given once daily every day for 28 days starting on Day 1), or sildenafil (100 mg/kg, administered once daily every day for 28 days starting on Day 1) (n=12 in each group). Rats received a single injection of monocrotaline (50 mg/kg, s.c.) on Study Day 1. On the twenty-eighth day following monocrotaline dosing, the rats were anesthetized with ketamine/xylazine for terminal monitoring of pulmonary and systemic arterial pressures along with heart rate.
Test Item: Vehicle (0.5% Methylcellulose+0.2% Tween 80 in deionized water, Temozolomide (10 mg/kg given once daily for 28 days; Sildenafil (100 mg/kg administered once daily)
as §1
Study Design: The study was planned and conducted according to design depicted below in Table 1
Pulmonary arterial hypertension was induced by injecting monocrotaline (3 mL/Kg MCT in 50% DMSO in water) subcutaneously at a dose of 50 mg/kg of body weight to all the randomized Male Sprague-Dawley rats of Groups II, III,IV and V (except negative control group). Negative control group (Group I, DMSO group) received a single dose of 3 mL/kg 50% DMSO in water for injection subcutaneously. The positive control group (Group III) received 5 ml of vehicle every morning. The rats of temozolomide group (Group IV) were orally administered temozolomide (10 mg/kg given once daily for 28 days starting on Day 1) and rats of sildenafil group (Group V) were orally administered sildenafil (100 mg/kg given once daily for 28 days starting on Day 1) On the twenty-eighth day after monocrotaline dosing, the rats were anesthetized with ketamine/xylazine for terminal monitoring of pulmonary and systemic arterial pressures along with heart rate.

[3] = cited from earlier work
[4] = Sildenafil 100 mg/Kg p.o. QD Day 14 till Day 28
[5] = Sildenafil 100 mg/Kg p.o. QD 28 days from Day 1
[6] = Temozolomide 30 mg/Kg p.o. QD Day 14 till Day 28
[7] = administered after a modified high-fat breakfast
[8] = Temozolomide 10 mg/Kg p.o. QD 28 days from Day 1

CCCc1nn(C)c2c(=O)[nH]c(-c3cc(S(=O)(=O)N4CCN(C)CC4)ccc3OCC)nc12 [Sildenafil]
inhibition at 100 mg/kg ([1]; Sildenafil 100 mg/Kg p.o. QD Day 14 till Day 28, read-out: % Inhibition of Right Ventricular Pressure (RVP)): 58.3%
inhibition at 100 mg/kg ([1]; Sildenafil 100 mg/Kg p.o. QD Day 14 till Day 28, read-out: % Inhibition of Right Ventricular Systolic Pressure (RVSP)): 55.1%
% Inhibition of Fulton index : Hypertrophy (RV/LV + S) [1, 4]: 30.70%
Fulton index: Hypertrophy (RV/LV + S), Mean [1, 4]: 0.384
Right Ventricle weight, Mean [1, 4]: 0.286 gms
Right Ventricular Pressure (RVP), Mean [1, 4]: 14.302 mmHg
Right Ventricular Systolic Pressure (RVSP), Mean [1, 4]: 30.803 mmHg
Right ventricle/Body weight, Mean [1, 4]: 0.0008
Fulton index: Hypertrophy (RV/LV + S) [1, 4]: 0.464 and 0.393 and 0.306 and 0.337 and 0.389 and 0.415
Right Ventricle weight [1, 4]: 0.309 gms and 0.220 gms and 0.259 gms and 0.256 gms and 0.308 gms and 0.363 gms
Right Ventricular Pressure (RVP) [1, 4]: 10.916 mmHg and 11.268 mmHg and 17.424 mmHg and 11.506 mmHg and 16.211 mmHg and 18.486 mmHg
Right Ventricular Systolic Pressure (RVSP) [1, 4]: 22.951 mmHg and 27.908 mmHg and 33.917 mmHg and 23.264 mmHg and 40.201 mmHg and 36.579 mmHg
Right ventricle/Body weight [1, 4]: 0.0009 (2×) and 0.0006 and 0.0007 (2×) and 0.0012
Fulton index: Hypertrophy (RV/LV + S), Mean [2, 5]: 0.312
RV/Body wt, Mean [2, 5]: 0.0006
Right Ventricular Pressure (RVP), Mean [2, 5]: 13.929 mmHg
Right Ventricular Systolic Pressure (RVSP), Mean [2, 5]: 29.648 mmHg
Right ventricle (RV), Mean [2, 5]: 0.247 g
Fulton index: Hypertrophy (RV/LV + S) [2, 5]: 0.367 and 0.297 and 0.323 and 0.312 and 0.352 and 0.309 and 0.330 and 0.167 and 0.354
RV/Body wt [2, 5]: 0.0009 and 0.0006 (4×) and 0.0007 (3×) and 0.0003
Right Ventricular Pressure (RVP) [2, 5]: 11.481 mmHg and 15.226 mmHg and 11.673 mmHg and 14.427 mmHg and 14.139 mmHg and 16.310 mmHg and 12.947 mmHg and 12.352 mmHg and 16.804 mmHg
Right ventricle (RV) [2, 5]: 0.440 g and 0.228 g and 0.207 g and 0.232 g and 0.308 g and 0.229 g and 0.261 g and 0.083 g and 0.236 g
Right Ventricular Systolic Pressure (RVSP) [2, 5]: 23.627 mmHg and 31.322 mmHg and 24.486 mmHg and 29.450 mmHg and 31.316 mmHg and 32.922 mmHg and 34.262 mmHg and 25.579 mmHg and 33.864 mmHg

Cn1nnc2c(C(N)=O)ncn2c1=O [Temozolomide]
inhibition at 30 mg/kg ([1]; Temozolomide 30 mg/Kg p.o. QD Day 14 till Day 28, read-out: % Inhibition of Right Ventricular Pressure (RVP)): 53.9%
inhibition at 30 mg/kg ([1]; Temozolomide 30 mg/Kg p.o. QD Day 14 till Day 28, read-out: % Inhibition of Right Ventricular Systolic Pressure (RVSP)): 44.8%
% Inhibition of Fulton index : Hypertrophy (RV/LV + S) [1, 6]: 19.83%
activity in treatment of PAH ([1]; Temozolomide 30 mg/kg vs Sildenafil 100 mg/kg): comparable among with Sildenafil activity
systolic and mean pulmonary arterial pressures compared to the vehicle group ([1]; after 28 days, 30 mg/kg/QD/day, Day 14 till Day 28): differences in systolic and mean pulmonary arterial pressures
Fulton index: Hypertrophy (RV/LV + S), Mean [1, 6]: 0.444
Right Ventricle weight, Mean [1, 6]: 0.274 gms
Right Ventricular Pressure (RVP), Mean [1, 6]: 15.802 mmHg
Right Ventricular Systolic Pressure (RVSP), Mean [1, 6]: 37.936 mmHg
Right ventricle/Body weight, Mean [1, 6]: 0.0009
Fulton index: Hypertrophy (RV/LV + S) [1, 6]: 0.502 and 0.480 and 0.481 (2×) and 0.382 and 0.357 and 0.485 and 0.506 and 0.341 and 0.427
Right Ventricle weight [1, 6]: 0.311 gms and 0.286 gms and 0.210 gms and 0.237 gms and 0.273 gms and 0.343 gms and 0.232 gms and 0.245 gms and 0.283 gms and 0.318 gms
Right Ventricular Pressure (RVP) [1, 6]: 15.151 mmHg and 19.476 mmHg and 14.308 mmHg and 12.295 mmHg and 15.993 mmHg and 21.577 mmHg and 22.479 mmHg and 12.349 mmHg and 12.363 mmHg and 12.035 mmHg
Right ventricle/Body weight [1, 6]: 0.0011 (3×) and 0.0010 and 0.0008 (3×) and 0.0007 and 0.0009 (2×)
Right Ventricular Systolic Pressure (RVSP) ([1]; Temozolomide 30 mg/Kg p.o. QD Day 14 till Day 28, MCT 50 mg/kg s.c. Day 1): 39.693 mmHg and 42.429 mmHg and 31.561 mmHg and 36.888 mmHg and 37.763 mmHg and 48.504 mmHg and 45.392 mmHg and 33.928 mmHg and 29.989 mmHg and 33.218 mmHg
AUC decrease [3, 7]: 9%
Mean peak plasma concentration decrease [3, 7]: 32%
median Tmax [3, 7]: 2.25 h
median Tmax increase [3, 7]: 2 fold
absorption ([3]; oral administration): rapidly and completely absorbed
activity in controlling or reducing PAH ([2]; Temozolomide 10 mg/kg vs Sildenafil 100 mg/kg): comparable among with Sildenafil activity
systolic and mean pulmonary arterial pressures compared to the vehicle group ([2]; after 28 days, 10 mg/kg/QD/day): differences in systolic and mean pulmonary arterial pressures
Fulton index: Hypertrophy (RV/LV + S), Mean [2, 8]: 0.342
RV/Body wt, Mean [2, 8]: 0.0007
Right Ventricular Pressure (RVP), Mean [2, 8]: 15.548 mmHg
Right Ventricular Systolic Pressure (RVSP), Mean [2, 8]: 33.732 mmHg
Right ventricle (RV), Mean [2, 8]: 0.227 g
Fulton index: Hypertrophy (RV/LV + S) [2, 8]: 0.325 and 0.333 and 0.450 and 0.294 and 0.406 and 0.287 and 0.277 and 0.255 and 0.519 and 0.345 and 0.273
RV/Body wt [2, 8]: 0.0006 (3×) and 0.0008 (2×) and 0.0005 (4×) and 0.0011 and 0.0007
Right Ventricular Pressure (RVP) [2, 8]: 11.178 mmHg and 15.927 mmHg and 16.493 mmHg and 19.994 mmHg and 15.532 mmHg and 12.593 mmHg and 16.840 mmHg and 17.431 mmHg and 16.896 mmHg and 16.462 mmHg and 11.679 mmHg
Right ventricle (RV) [2, 8]: 0.244 g and 0.220 g (2×) and 0.298 g and 0.202 g and 0.268 g and 0.218 g and 0.197 g and 0.167 g and 0.311 g and 0.156 g
Right Ventricular Systolic Pressure (RVSP) [2, 8]: 29.626 mmHg and 33.857 mmHg and 35.059 mmHg and 38.531 mmHg and 30.456 mmHg and 30.333 mmHg and 36.128 mmHg and 35.368 mmHg and 40.220 mmHg and 33.582 mmHg and 27.895 mmHg
